Laboratory results: ChEMBL document CHEMBL5308504, “Tm Shift (DSF) assay results for EUbOPEN Chemogenomics Library” (2023)
“And” between values parts separate entries of the source, which are not always exact repeats. Equal values may be shown once.

Columns and labels:
Peregrin (Homo sapiens) = molecular target: T1, Peregrin (Homo sapiens) (UniProt P55201); settings: Compound concentration 20.0 uM, Protein concentration 2.0 uM, Result type QC Liability
T1 sequence (whole entry): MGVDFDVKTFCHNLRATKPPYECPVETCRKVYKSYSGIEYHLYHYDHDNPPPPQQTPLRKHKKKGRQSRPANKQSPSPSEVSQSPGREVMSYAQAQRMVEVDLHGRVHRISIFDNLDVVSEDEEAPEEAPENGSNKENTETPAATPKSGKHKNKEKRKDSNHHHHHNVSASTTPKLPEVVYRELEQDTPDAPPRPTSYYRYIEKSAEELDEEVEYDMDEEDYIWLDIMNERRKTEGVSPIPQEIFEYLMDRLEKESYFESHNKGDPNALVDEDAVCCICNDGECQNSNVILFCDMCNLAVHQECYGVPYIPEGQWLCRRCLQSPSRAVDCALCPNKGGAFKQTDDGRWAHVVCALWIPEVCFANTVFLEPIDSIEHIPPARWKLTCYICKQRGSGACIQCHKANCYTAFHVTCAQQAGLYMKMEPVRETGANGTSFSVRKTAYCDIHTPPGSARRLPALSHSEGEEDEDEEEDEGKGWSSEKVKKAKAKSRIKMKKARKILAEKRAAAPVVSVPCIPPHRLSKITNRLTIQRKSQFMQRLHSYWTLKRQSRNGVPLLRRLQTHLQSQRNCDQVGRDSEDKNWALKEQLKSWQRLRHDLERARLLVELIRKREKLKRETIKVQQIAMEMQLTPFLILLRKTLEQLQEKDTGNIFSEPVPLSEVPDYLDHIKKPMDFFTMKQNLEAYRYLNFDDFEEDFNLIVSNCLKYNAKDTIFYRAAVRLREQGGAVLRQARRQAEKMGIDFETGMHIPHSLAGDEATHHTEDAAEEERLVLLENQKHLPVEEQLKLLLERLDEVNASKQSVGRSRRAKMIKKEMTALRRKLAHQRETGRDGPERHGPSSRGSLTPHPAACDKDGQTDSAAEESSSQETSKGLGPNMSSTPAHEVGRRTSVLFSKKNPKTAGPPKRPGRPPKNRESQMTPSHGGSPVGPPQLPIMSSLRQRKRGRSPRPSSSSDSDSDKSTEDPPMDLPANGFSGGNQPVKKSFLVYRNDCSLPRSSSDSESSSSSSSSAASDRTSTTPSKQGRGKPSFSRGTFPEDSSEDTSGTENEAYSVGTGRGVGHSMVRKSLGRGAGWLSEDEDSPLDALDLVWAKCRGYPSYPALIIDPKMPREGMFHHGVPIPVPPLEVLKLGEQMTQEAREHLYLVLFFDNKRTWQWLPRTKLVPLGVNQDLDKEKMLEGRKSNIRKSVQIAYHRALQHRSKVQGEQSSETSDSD

[1] = molecular target: Fibroblast growth factor receptor 3 (Homo sapiens) (UniProt P22607); settings: Compound concentration 20.0 uM, Protein concentration 2.0 uM, Result type QC Liability
Chain of Fibroblast growth factor receptor 3 (Homo sapiens) (P22607 23-806 limits assumed): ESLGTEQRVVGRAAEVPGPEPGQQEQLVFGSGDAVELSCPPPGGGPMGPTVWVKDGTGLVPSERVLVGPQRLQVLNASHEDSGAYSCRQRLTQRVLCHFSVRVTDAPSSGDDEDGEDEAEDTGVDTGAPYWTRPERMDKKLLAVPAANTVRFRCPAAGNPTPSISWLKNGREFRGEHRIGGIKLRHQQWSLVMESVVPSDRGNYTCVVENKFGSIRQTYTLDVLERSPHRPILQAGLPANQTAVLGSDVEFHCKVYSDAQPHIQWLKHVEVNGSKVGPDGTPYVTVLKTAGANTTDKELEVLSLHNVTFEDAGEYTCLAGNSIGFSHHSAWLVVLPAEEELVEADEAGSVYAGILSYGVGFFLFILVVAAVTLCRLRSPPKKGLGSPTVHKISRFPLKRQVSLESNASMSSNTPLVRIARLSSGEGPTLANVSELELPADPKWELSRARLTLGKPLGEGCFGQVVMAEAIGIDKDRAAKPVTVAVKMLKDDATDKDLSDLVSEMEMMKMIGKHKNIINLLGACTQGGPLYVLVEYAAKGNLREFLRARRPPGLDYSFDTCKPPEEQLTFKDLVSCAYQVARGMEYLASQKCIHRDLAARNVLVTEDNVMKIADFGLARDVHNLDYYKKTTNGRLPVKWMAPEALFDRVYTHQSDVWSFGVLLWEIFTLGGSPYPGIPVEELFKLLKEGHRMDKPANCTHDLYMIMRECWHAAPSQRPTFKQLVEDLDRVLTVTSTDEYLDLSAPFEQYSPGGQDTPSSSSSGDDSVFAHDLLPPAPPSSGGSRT
Description: Thermal Shift Assay. Domain: start/stop: P449-E759

SMILES | ΔTm (Peregrin (Homo sapiens)) | ΔTm [1]
COc1cccc(Cn2cc(C(=O)Nc3ccc(C)c(S(=O)(=O)N4CCOCC4)c3)c(-c3ccc(C)cc3)n2)c1 | 4.54 °C | 3.17 °C
CN(C)c1ccc(-c2cc3ncccc3c(OCCCCO)n2)cc1 | -2.48 °C | 3.37 °C
N#C/C(=C\c1ccc(O)c(O)c1)C(=O)OCCc1cccs1 | -0.27 °C | 1.51 °C
N#Cc1c(SCc2csc(-c3ccc(Cl)cc3)n2)nc(N2CCCC2)c(C#N)c1-c1ccc(OCCO)cc1 | -3.79 °C | 1.06 °C
N[C@@H](CC(=O)O)Cn1nnc(-c2ccc(Oc3ncc(Cl)cc3F)cc2)n1 | -3.09 °C | 0.43 °C
CC(C)(C[C@H]1CN(S(=O)(=O)c2cccc(C(F)(F)F)c2)c2cc(-c3cc(F)cc(OC(F)F)c3)ccc2O1)C(=O)O | -3.42 °C | -0.98 °C
N#Cc1ccc(C#CC[C@@H](C#N)NC(=O)[C@H]2CCCCN2)cc1F | -2.24 °C | 0.88 °C
CN(C)[C@H]1CCc2nc(NC(=O)c3cccc(Cn4cc(-c5ccc(C#N)cc5)cn4)c3)sc2C1 | 0.07 °C | 0.81 °C
CC(=O)c1c(C)c2cnc(Nc3ccc(N4CCNCC4)cn3)nc2n(C2CCCC2)c1=O | -1.97 °C and -1.31 °C | 0.56 °C and 0.64 °C
COCc1c(-c2cc3cc(C)cc(OC)c3s2)c2c(N)ncnn2c1CN[C@@H]1CCNC1=O | -2.51 °C | 6.99 °C
Cc1c(N2CCNCC2)nc2ccc(Br)cc2c1C(=O)NC[C@H](CCC(=O)O)c1ccccc1Cl | -2.38 °C | 0.57 °C
CNC(=O)c1cccc(-c2ccc3c(N4CCOC[C@@H]4C)nc(N4CCOC[C@@H]4C)nc3n2)c1 | -1.11 °C | 0.5 °C
CC(C)C(=O)N1CCC(c2cn(C)c3ncc(NC(=O)c4cccc(C#N)c4)c(C(F)(F)F)c23)CC1 | 0.27 °C | 0.79 °C
CCCCC(C)(O)C/C=C/[C@H]1[C@H](O)CC(=O)[C@@H]1CCCCCCC(=O)O (stereo partly drawn) | -1.2 °C | 0.43 °C
C=CC(=O)Nc1cccc(C(=O)Nc2ccc(Nc3cc(-c4c(-c5ccc(F)cc5)nc(SC)n4C)ccn3)cc2)c1 | 0.18 °C | -0.43 °C
C[C@H](CCC(=O)O)[C@H]1CC[C@H]2[C@@H]3[C@H](O)C[C@@H]4C[C@H](O)CC[C@]4(C)[C@H]3C[C@H](O)[C@]12C | -2.19 °C | 0.75 °C
Cc1nnc2n1-c1sc3c(c1C(c1ccccc1Cl)=NC2)C[C@H](C(=O)N1CCOCC1)C3 | -1.51 °C | 0.59 °C
O=C1CN(c2ccccc2F)C(NCCN2CCOCC2)=C1c1nc2cc(Br)ccc2c(=O)[nH]1 | -2.29 °C | 0.53 °C
Cn1ncc(-c2nc(N[C@H]3CC[C@H](N)CC3)ncc2Cl)c1CC1CC1 | -1.56 °C | 1.76 °C
CC1=C(C(=O)OCCO)[C@@H](c2ccc(C#N)cc2)NC(=O)N1c1cccc(C(F)(F)F)c1 | -1.72 °C | 0.42 °C

SMILES | ΔTm (Peregrin (Homo sapiens)) | ΔTm [1]
CNC(=O)c1c[nH]c2ccc(Nc3nccc(-c4ccccn4)n3)cc12 | -0.15 °C | 0.22 °C
COc1ccc(-c2csc(NC(=O)[C@H]3CCCCN3S(=O)(=O)c3ccc(C)cc3)n2)cc1 | -0.84 °C | 0.16 °C
CC(=O)Oc1ccc2c(c1)[C@@]1(C)CCC[C@](C)(C(=O)OC(=O)[C@@]3(C)CCC[C@]4(C)c5cc(OC(C)=O)ccc5CC[C@@H]34)[C@@H]1CC2 | -2.67 °C | 0.1 °C
CCNC(=O)c1ccc2c(c1)NC(=O)/C2=C(\Nc1ccc(CN(C)C)cc1)c1ccccc1 | -2.4 °C and -1.23 °C | 1.15 °C and 1.47 °C
O=C(O)CCCCN(CCc1cc(F)ccc1OCc1ccc(-c2ccc(C(F)(F)F)cc2)cc1)Cc1ccc(C(=O)O)cc1 | -3.03 °C | -0.36 °C
C[C@@H](CO)CCC[C@@H](C)[C@H]1CC[C@H]2[C@@H]3CC=C4C[C@@H](O)CC[C@]4(C)[C@H]3CC[C@]12C | -1.97 °C | 0.9 °C
Cc1cc2c(cc(C(=O)N[C@H](CO)c3ccc(S(=O)(=O)CC(=O)O)cc3)n2C)c(Cl)c1Cl | -3.03 °C | 0.16 °C
N#CC[C@H](C1CCCC1)n1cc(-c2ncnc3[nH]ccc23)cn1 | 0.48 °C | 3.43 °C
COc1cc(F)ccc1-c1cc(Nc2cc(CS(C)(=N)=O)ccn2)ncc1F (stereo not drawn) | -1.49 °C | 3.5 °C
CC(C)[C@H](CO)Nc1nc(Nc2ccc(C(=O)O)c(Cl)c2)c2ncn(C(C)C)c2n1 | 0.06 °C | 4.45 °C
Nc1ncnc2c1c(I)cn2[C@@H]1O[C@H](CO)[C@@H](O)[C@H]1O | -1.79 °C | 3.13 °C
CC(=O)Nc1nc(C)c(S(=O)(=O)Nc2ccc(C(O)(C(F)(F)F)C(F)(F)F)cc2)s1 | -0.9 °C | 0.63 °C
CC[C@H](Nc1c(C#N)c(-c2ccc(-c3cccc(C)c3F)cc2)nc2cnccc12)C(=O)O | -1.54 °C | -0.1 °C
C[C@@H]1CCNC(=O)c2cc3ccc(C(=O)Nc4nc5ccccc5n4CCCN(C)C)cc3n21 | -2.35 °C | 2.76 °C
O=C(O)CCCc1cc2cc(Cl)ccc2n1S(=O)(=O)c1ccc2ncsc2c1 | -1.78 °C | 0.8 °C
COc1cc(C(N)=O)nc(-c2cccc(C#C[C@]3(O)CCN(C)C3=O)c2)c1 | -1.73 °C | 0.48 °C
CCC(C(=O)Nc1ccc(-c2cc3ccccc3s2)c(C(N)=O)c1)c1nccs1 (stereo not drawn) | -1.09 °C | 0.48 °C
O=C(NCCN1CCOCC1)c1ccc2nn(CCOc3ccc(Cl)cc3)cc2c1 | -2.21 °C | 1.58 °C
CN(C)C(=O)Cn1cc(-c2ccc(-c3cncc4ccccc34)cc2)cn1 | -2.52 °C | 0.29 °C
NC(=O)c1ccccc1Nc1nc(-c2ccc(N3CCOCC3)cc2)cc2ncccc12 | -0.11 °C | 4.32 °C

SMILES | ΔTm (Peregrin (Homo sapiens)) | ΔTm [1]
CO[C@H](C)CN1CC[C@]2(C)c3cccc(O)c3C[C@H]1C2(C)C | -1.37 °C | 0.41 °C
CCOCCn1cc(C(=O)Nc2ccc(-n3nc(-c4cccnc4)cc3C(F)(F)F)cn2)ccc1=O | -3.33 °C | 0.41 °C
CC(=O)Nc1c(F)cc(C(=O)N[C@H]2CC[C@H](O)CC2)cc1O[C@@H](C)c1ccccc1 | -0.36 °C | 0.45 °C
NC(=O)OC[C@H](NC(=O)Cn1nc(-c2ccc(Cl)cc2)n(C[C@H](O)C(F)(F)F)c1=O)c1cccc(C(F)(F)F)c1 | -3.24 °C | 1.19 °C
Cc1nsc(Nc2cnc(C(F)(F)F)cn2)c1C(=O)Nc1ccc(O[C@H]2CCCN(CC(F)(F)F)C2)nc1 | -3.38 °C | 1.39 °C
Cc1cc(CN)cc(C)c1-c1ncn(C)c1-c1ccnc2cc(F)ccc12 | -2.14 °C | 0.85 °C
COc1cc(-c2cc([C@H](O)C3CC3)n3ncnc(N)c23)ccc1CO | -2.32 °C | 1.71 °C
CC1(C)CCN(C(=O)C2CN(c3c4c(nc5ccnn35)CCNCC4)C2)C1 | -2.26 °C | 0.72 °C
CN(c1ccc(C(F)(F)F)cc1)S(=O)(=O)c1ccc(C(=O)Nc2nc(-c3ccccn3)cs2)cc1 | 7.54 °C | 8.54 °C
COc1cc(-c2cc3ncccc3c(O[C@@H](C)[C@H]3CNC(=O)C3)n2)cc(OC)c1OC | -2.76 °C | 0.6 °C
CN(C(=O)CCOCCOCCOCCOCCNc1cccc2c1C(=O)N(C1CCC(=O)NC1=O)C2=O)[C@H]1CC[C@@]2(C)[C@@H](CC[C@@H]3[C@@H]2CC[C@]2(C)[C@@H](c4ccc5ccncc5c4)CC[C@@H]32)C1 (stereo partly drawn) | 3.76 °C | 1.42 °C
COc1cc(C(=O)NCCOCCOCCOCC(=O)N[C@H](C(=O)N2C[C@H](O)C[C@H]2C(=O)NCc2ccc(-c3scnc3C)cc2)C(C)(C)C)ccc1Nc1ncc(C(F)(F)F)c(Oc2cccc3c2C(=O)CC3)n1 | -0.82 °C | 1.52 °C
CC(C)(O)CNC(=O)N1C(=O)N(c2cccc(C(F)(F)F)c2)C2=C(C(=O)CC2)[C@@H]1c1ccc(C#N)cc1 | -2.73 °C | 0.55 °C
Cc1cccc(-c2nn3c(c2-c2ccnc4ccc(C(N)=O)cc24)CCC3)n1 | -0.93 °C | 1.13 °C
C[S+](C)[O-] | 0 °C (2×) and -0.4 °C | 0 °C (2×) and 0.62 °C
Cc1ccc2c(NS(=O)(=O)c3ccccc3Cl)cccc2c1Oc1ncccc1-c1ccnc(N[C@H]2CCCNC2)n1 | -3.81 °C | 0.02 °C
COCCOCn1c(S(C)(=O)=O)nc2c1c(=O)n(C)c(=O)n2C | -2.72 °C | 0.45 °C
Cc1cn([C@H](C)CC#N)c(=O)c2cc(Cn3nc(C(F)F)cc3Cl)nn12 | -1.09 °C | 0.78 °C
CC(=O)c1c(C)c2cnc(Nc3ccn(C)n3)nc2n(C2CCCC2)c1=O | -0.34 °C | -0.69 °C
